Tests used:
TNKS2 = molecular target: T1, TNKS2 (Homo sapiens, UniProt Q9H2K2); assay: Modified TNKS2 Assay 2 (auto-parsylation, [3H]-NAD+ SPA); format: biochemical; conditions: 6 nM TNKS2, 96 well
T1 sequence (Q9H2K2 1-1166): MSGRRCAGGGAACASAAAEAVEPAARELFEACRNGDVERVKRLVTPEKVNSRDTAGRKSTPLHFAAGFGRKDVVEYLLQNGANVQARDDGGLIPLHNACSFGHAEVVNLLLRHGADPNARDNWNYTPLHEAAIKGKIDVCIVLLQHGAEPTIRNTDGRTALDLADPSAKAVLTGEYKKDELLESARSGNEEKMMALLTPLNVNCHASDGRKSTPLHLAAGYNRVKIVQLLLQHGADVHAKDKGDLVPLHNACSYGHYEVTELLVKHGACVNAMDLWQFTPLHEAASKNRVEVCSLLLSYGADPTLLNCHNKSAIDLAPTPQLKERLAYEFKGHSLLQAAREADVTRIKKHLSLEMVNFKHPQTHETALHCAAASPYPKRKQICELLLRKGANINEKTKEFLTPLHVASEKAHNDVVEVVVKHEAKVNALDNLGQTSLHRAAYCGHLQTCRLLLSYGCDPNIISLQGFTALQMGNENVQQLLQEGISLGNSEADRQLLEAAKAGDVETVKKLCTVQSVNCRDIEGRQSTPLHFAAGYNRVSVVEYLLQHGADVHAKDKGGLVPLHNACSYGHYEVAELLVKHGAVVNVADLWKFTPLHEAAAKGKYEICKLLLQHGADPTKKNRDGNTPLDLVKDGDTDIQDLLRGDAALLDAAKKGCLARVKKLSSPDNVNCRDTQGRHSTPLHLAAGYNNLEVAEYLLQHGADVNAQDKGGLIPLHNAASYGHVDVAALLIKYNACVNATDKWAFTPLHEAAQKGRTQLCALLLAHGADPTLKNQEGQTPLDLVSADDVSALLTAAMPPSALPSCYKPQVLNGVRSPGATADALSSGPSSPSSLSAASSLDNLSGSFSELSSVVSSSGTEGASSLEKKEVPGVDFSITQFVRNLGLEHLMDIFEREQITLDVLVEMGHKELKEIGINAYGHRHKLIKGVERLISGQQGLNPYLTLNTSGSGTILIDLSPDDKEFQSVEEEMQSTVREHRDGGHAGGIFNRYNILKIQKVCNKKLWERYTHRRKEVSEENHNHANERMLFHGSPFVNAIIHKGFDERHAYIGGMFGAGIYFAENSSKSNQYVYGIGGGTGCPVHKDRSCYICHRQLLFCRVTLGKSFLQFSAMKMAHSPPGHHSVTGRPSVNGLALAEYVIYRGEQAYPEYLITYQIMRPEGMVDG
Protocol: The potency of selected compounds according to the invention was assessed applying an modified in vitro inhibition assay. Here, the TNKS2 catalyzed NAD^+-dependent ribosylation of the enzyme itself (auto-parsylation) was detected using [^3H]-NAD^+ as substrate and applying the scintillation proximity assay (SPA) method to detect tritium-labeled, parsylated TNKS2. The intensity of the readout signal is proportional to the incorporated [^3H]-NAD^+. Inhibition of TNKS2 leads to a decreased incorporation of [^3H]-NAD^+ and consequently to a lower readout signal intensity. The concentration of a test compound which inhibits the enzyme activity by 50% (corresponds to half of the normed readout signal intensity) is reported as IC50.
The assay was conducted in a 96 well MTP format with the identical TNKS2 enzyme sample and NAD^+ sample as in the histone ribosylation assay with the following modifications: TNKS2 enzyme sample was diluted with a modified assay buffer (50 mM MES pH 7.0, 1 mM DTT, 0.01% Triton X-100) to a final concentration of 6 nM TNKS2 and 10×NAD^+ solution was diluted with the modified assay buffer (s. above) to a final 0.445×NAD^+ solution doped with 100 Bq/ul [^3H]-NAD^+ [Catalog #NET443H050UC, Perkin Elmer, Waltham, Mass., USA]. Substrate solution (10 ul) was incubated with different test compound concentrations (2.5 ul in 10% DMSO in modified assay buffer) or control (2.5 ul 10% DMSO in modified assay buffer only) and enzyme (10 ul) over night at room temperature. Incorporated tritium was measured after addition of 50 ul SPA beads (1 mg/ml) [Catalog #RPNQ0095 20 mg/ml, Perkin Elmer, Waltham, Mass., USA; diluted 1:10 with Dulbecco's phosphate buffered saline, PBS Catalog #D8537, Sigma-Aldrich, Steinheim, Germany] and detection of the photon emission with a beta count plate reader [Wallac MicroBeta®, Perkin Elmer, Waltham, Mass., USA].

[1] = system: wildtype Wnt signaling cascade; assay: HEK293 TOP Assay (Super TopFlash luciferase reporter, Wnt-3a stimulated); format: cell-based; conditions: Homo sapiens, HEK293, 16 h
In short: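 HEK293 cells stably carrying Super TopFlash (TOP) or FOP reporter, stimulated with recombinant human Wnt-3a (2500–5 ng/ml, two-fold steps). Both lines incubated in parallel with compound from 50 μM to 15 nM (3.16-fold) in CAFTY buffer pH 7.4 with 2 mM Ca2+ and 0.01% BSA; selectivity judged TOP vs FOP.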

[2] = HEK293 TOP reporter cell line, Wnt-3a at EC50, 16 hours incubation, compound dilution series 50 μM to 15 nM
[3] = HEK293 TOP reporter cells, Wnt3a at EC50, 16 hours, luciferase

Structure (SMILES)	IC50 (TNKS2)	IC50 [1, 2]	IC50 [1, 3]
O=C(Nc1ccc(NC(=O)c2ocnc2C(=O)NCCN2CCC(F)(F)CC2)cc1)c1ccc(F)cc1Cl [Example 218, N^5-{4-[(2-chloro-4-fluorobenzoyl)amino]phenyl}-N^4-[2-(4,4-difluoropiperidin-1-yl)ethyl]-1,3-oxazole-4,5-dicarboxamide]	110 nM	1610 nM	–
CNC(=O)c1nc[nH]c1C(=O)Nc1ccc(NC(=O)c2ccc(O)cc2Cl)cc1 [Example 122, N^5-{4-[(2-chloro-4-hydroxybenzoyl)amino]phenyl}-N^4-methyl-1H-imidazole-4,5-dicarboxamide]	530 nM	280 nM	–
O=C(Nc1ccc(NC(=O)c2nc[nH]c2C(=O)NCCN2CCC2)cc1)c1ccc(F)cc1 [Example 199, N^5-[2-(azetidin-1-yl)ethyl]-N^4-{4-[(4-fluorobenzoyl)amino]phenyl}-1H-imidazole-4,5-dicarboxamide]	130 nM	1030 nM	–
CNC(=O)c1nc[nH]c1C(=O)Nc1ccc(NC(=O)c2ccc(F)cc2)cc1 [Example 20, N^5-{4-[(4-fluorobenzoyl)amino]phenyl}-N^4-methyl-1H-imidazole-4,5-dicarboxamide]	> 10000 nM	11200 nM	3350 nM
CN1CCN(C(C)(C)CNC(=O)c2[nH]cnc2C(=O)Nc2ccc(NC(=O)c3ccc(F)cc3Cl)cc2)CC1 [Example 187, N^4-{4-[(2-chloro-4-fluorobenzoyl)amino]phenyl}-N^5-[2-methyl-2-(4-methylpiperazin-1-yl)propyl]-1H-imidazole-4,5-dicarboxamide]	100 nM	350 nM	–
CNC(=O)c1nc[nH]c1C(=O)Nc1ccc(NC(=O)c2cc(OC)c(OC)cc2Cl)cc1 [Example 240, N^5-{4-[(2-chloro-4,5-dimethoxybenzoyl)amino]phenyl}-N^4-methyl-1H-imidazole-4,5-dicarboxamide]	30 nM	80 nM	–
CNC(=O)c1nc[nH]c1C(=O)Nc1ccc(NC(=O)c2ccc(Cl)cc2Cl)cc1 [Example 9, N^5-{4-[(2,4-dichlorobenzoyl)amino]phenyl}-N^4-methyl-1H-imidazole-4,5-dicarboxamide]	80 nM	140 nM	150 nM
CNC(=O)c1nc[nH]c1C(=O)Nc1ccc(NC(=O)c2c(F)cc(F)cc2Cl)cc1 [Example 118, N^5-{4-[(2-chloro-4,6-difluorobenzoyl)amino]phenyl}-N^4-methyl-1H-imidazole-4,5-dicarboxamide]	140 nM	620 nM	–
CCNC(=O)c1nc[nH]c1C(=O)Nc1ccc(NC(=O)c2ccccc2S(C)(=O)=O)cc1 [Example 257, N^4-ethyl-N^5-(4-{[2-(methylsulfonyl)benzoyl]amino}phenyl)-1H-imidazole-4,5-dicarboxamide]	5000 nM	2600 nM	–
CNC(=O)c1nc[nH]c1C(=O)Nc1ccc(NC(=O)c2ccccc2C(F)F)cc1 [Example 241, N^5-(4-{[2-(difluoromethyl)benzoyl]amino}phenyl)-N^4-methyl-1H-imidazole-4,5-dicarboxamide]	1800 nM	1900 nM	–
CCNC(=O)c1nc[nH]c1C(=O)Nc1ccc(NC(=O)c2ccc(OCC)cc2Cl)cc1 [Example 259, N^5-{4-[(2-chloro-4-ethoxybenzoyl)amino]phenyl}-N^4-ethyl-1H-imidazole-4,5-dicarboxamide]	7600 nM	880 nM	–
CNC(=O)c1nc[nH]c1C(=O)Nc1ccc(NC(=O)c2ccc(OCCN3CCN(C)CC3)cc2Cl)cc1 [Example 28, N^5-[4-({2-chloro-4-[2-(4-methylpiperazin-1-yl)ethoxy]benzoyl}amino)phenyl]-N^4-methyl-1H-imidazole-4,5-dicarboxamide]	180 nM	530 nM	680 nM
CNC(=O)c1nc[nH]c1C(=O)Nc1ccc(NC(=O)c2c(-c3ccccc3)nn(C)c2Cl)cc1 [Example 17, N^5-(4-{[(5-chloro-1-methyl-3-phenyl-1H-pyrazol-4-yl)carbonyl]amino}phenyl)-N^4-methyl-1H-imidazole-4,5-dicarboxamide]	–	3550 nM	3550 nM
O=C(Nc1ccc(NC(=O)c2[nH]cnc2C(=O)NCc2ccccc2)cc1)c1ccc(F)cc1Cl [Example 18, N^4-benzyl-N^5-{4-[(2-chloro-4-fluorobenzoyl)amino]phenyl}-1H-imidazole-4,5-dicarboxamide]	–	410 nM	340 nM
CC(NC(=O)c1ncoc1C(=O)Nc1ccc(NC(=O)c2ccc(F)cc2Cl)cc1)c1ccccc1 (centres unmarked) [Example 8, N^5-{4-[(2-chloro-4-fluorobenzoyl)amino]phenyl}-N^4-(1-phenylethyl)-1,3-oxazole-4,5-dicarboxamide]	–	4600 nM	4600 nM
CNC(=O)c1[nH]cnc1C(=O)Nc1ccc(NC(=O)c2cc(Cl)sc2Cl)cc1 [Example 213, N^4-(4-{[(2,5-dichloro-3-thienyl)carbonyl]amino}phenyl)-N^5-methyl-1H-imidazole-4,5-dicarboxamide]	–	460 nM	–
CC(C)NC(=O)c1ncoc1C(=O)Nc1ccc(NC(=O)c2ccc(F)cc2Cl)cc1 [Example 15, N^5-{4-[(2-chloro-4-fluorobenzoyl)amino]phenyl}-N^4-isopropyl-1,3-oxazole-4,5-dicarboxamide]	–	1250 nM	1250 nM
CNC(=O)c1nc[nH]c1C(=O)Nc1ccc(NC(=O)c2c(C)cc(F)cc2C)cc1 [Example 23, N^5-{4-[(4-fluoro-2,6-dimethylbenzoyl)amino]phenyl}-N^4-methyl-1H-imidazole-4,5-dicarboxamide]	–	660 nM	660 nM
CNC(=O)c1nc[nH]c1C(=O)Nc1ccc(NC(=O)c2ccc(N3CCCC3)cc2F)cc1 [Example 3, N^5-(4-{[2-fluoro-4-(pyrrolidin-1-yl)benzoyl]amino}phenyl)-N^4-methyl-1H-imidazole-4,5-dicarboxamide]	–	9700 nM	9700 nM
CCC(C)NC(=O)c1ncoc1C(=O)Nc1ccc(NC(=O)c2ccc(F)cc2Cl)cc1 (centres unmarked) [Example 7, N^4-sec-butyl-N^5-{4-[(2-chloro-4-fluorobenzoyl)amino]phenyl}-1,3-oxazole-4,5-dicarboxamide]	–	5650 nM	5650 nM
COC(=O)c1ncoc1C(=O)Nc1ccc(NC(=O)c2ccc(F)cc2Cl)cc1 [Example 14, Methyl 5-({4-[(2-chloro-4-fluorobenzoyl)amino]phenyl}carbamoyl)-1,3-oxazole-4-carboxylate]	–	9350 nM	11500 nM
